The record followed here is patent US11098040B2, “Compounds and methods of use” (Ferro Therapeutics, Inc., priority 2018, dated 2021).

Read-outs that look alike come from different tables or passages of the source.

For one assay, the system named is A431. Nature of the assay: Cell proliferation (Alamar Blue) assay, A431. It is filed as cell-based. As to conditions: Homo sapiens, A-431; Cell Line A431. The protocol: Cells (SJSA-1, 786-O and A431) were seeded (5000 cells/100 μL/well) in 96-well tissue culture plate and incubated at 37° C./5% CO2 for 16-24 hours. The cells were then treated with compounds (25 μL of 5×). The compound concentrations were 10-0.0005 μM prepared in 3-fold serial dilutions with final DMSO concentration of 1%. The plates were then incubated for 24 h at 37° C./5% CO2 in a moist environment. Then Alamar Blue™ reagent (final concentration 1×-12.5 μL) was added to each well and incubated for 1.5 hours at 37° C./5% CO2. The plates were read on fluorescence reader at 540 nm excitation and 590 nm emission wavelengths. The IC50 values were subsequently determined using a sigmoidal dose-response curve (variable slope) in GraphPad Prism® 5 software.
The cell proliferation assays for the compounds shown Table 25 was performed according to the protocols described herein, including Examples 4 and 6.
A general note: Alamar Blue is a resazurin reagent that responds to reducing activity.

Another assay relates to SJSA-1. As to the kind of experiment: Cell proliferation (Alamar Blue) assay, SJSA-1 osteosarcoma, with/without ferrostatin. The class given is cell-based, human. Particulars: Homo sapiens. Put shortly:
(§1)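 Cells seeded at 5000/well, 16-24 h, then exposed 24 h at 37° C to compound, 10-0.0005 μM in 3-fold dilutions, 1% DMSO final. Alamar Blue fluorescence (ex 540/em 590 nm) read after 1.5 h; IC50 from variable-slope sigmoidal fit.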

The next assay has as its system 786-O. Nature of the assay: Cell proliferation (Alamar Blue) assay, 786-O renal cell carcinoma, with/without ferrostatin. It is filed as cell-based. As to conditions: Homo sapiens. Put shortly: as §1
For another assay, the system named is MiaPaCa-2. Nature of the assay: Cell viability assay (CellTiter Glo), pancreatic carcinoma MiaPaCa-2. It is filed as cell-based. Particulars: Homo sapiens, MIA PaCa-2; pancreatic carcinoma, 96 hours, CellTiter Glo; read-out: IC50 MiaPaCa-2. The protocol:
(§2) Cell viability assay was performed to assess the potency of the compounds in human cancer cell lines KP4 (pancreatic ductal adenocarcinoma), MiaPaCa-2 (pancreatic carcinoma), AsPC-1 (pancreatic adenocarcinoma, ascites), 143B (osteosarcoma), and SJSA-1 (osteosarcoma). Selected compounds were also assayed in a human breast epithelial cell line MCF-10A, a nontumorigenic cell line as a control to assess differential activity. Cells at a density of 500-5,000 cells/well were seeded in 96-well plates and incubated at 37° C. overnight. A series of 9 different concentrations of compound stocks (500×) were created by 3-fold serial dilution in DMSO. These compounds were further diluted in culture media and then added to cells so that the final DMSO concentration was equal to 0.25% or less. After 96 hours of incubation, 50 μL of CellTiter Glo reagent (Promega) was added to each well and luminescence was measured after 10 minutes using EnVision (PerkinElmer). Compounds titrated from top concentration of up to 30 μM. The select compounds were tested initially from 30 μM as the top concentration in duplicates (range of 4.6 nM-30 μM). […] Luminescence from cells treated with DMSO alone was set as Max and % of inhibition was calculated as follows: Inhibition %=(Max-Sample value)/Max*100. Data was analyzed using XL-fit software (ID Business Solutions Ltd.). IC50, relative IC50, or % of top inhibition was calculated.
The results of the assay in the pancreatic cell lines are given in Table 15a for PANC1, Table 15b for MiaPaCa-2, and Table 15c for AsPC-1.
For orientation: In ATP-based viability assays light output follows the ATP content of the culture.

The next assay has as its system A549. As to the kind of experiment: Cell viability assay, A549 cells. The class given is cell-based. Particulars: Homo sapiens, A549, A549; unit printed as PM; read-out: IC50 for A549. Put shortly: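 Growth of A549 cells was assessed with a cell viability assay. Cells were plated at 1,000-10,000 cells/well in 96-well plates and incubated overnight at 37° C. Nine-point 3-fold DMSO dilutions, starting from 30 μM and run in duplicate, were diluted into media (final DMSO 0.25% or less). After 96 hours, CellTiter Glo luminescence was read, inhibition was calculated against DMSO controls, and IC50 was fitted in XL-fit.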

The subject of the next assay is MCF-10A. As to the kind of experiment: Cell viability assay (CellTiter Glo), non-tumorigenic breast epithelial cell line MCF-10A. Particulars: Homo sapiens, 96 hours. It is filed as cell-based. The protocol: as §2
Paclitaxel was used as the positive control for cytotoxicity.

The mark [1] stands for this setting: SJSA-1, Cell Line SJSA-1, read-out: IC50.
Where [2] appears, read: 786-0, Cell Line 786-O, read-out: IC50.
The mark [3] stands for this setting: SJSA-1, 24 h, Alamar Blue, 24 h, 2 μM ferrostatin, read-out: SJSA-1 (IC50, μM) 2 μM Ferrostatin.
Where [4] appears, read: SJSA-1, 24 h, Alamar Blue, 24 h, without ferrostatin, read-out: SJSA-1 (IC50, μM) Without Ferrostatin.
The mark [5] stands for this setting: 786-0, 24 h, Alamar Blue, 24 h, 2 μM ferrostatin, read-out: 786-O (IC50, μM) 2 μM Ferrostatin.
The mark [6] stands for this setting: 786-0, 24 h, Alamar Blue, 24 h, without ferrostatin, read-out: 786-O (IC50, μM) Without Ferrostatin.

Usually IC50 stands for the concentration that gives 50% inhibition. As for `C[C@H]1Cc2c([nH]c3ccccc23)C(c2ccc(-n3ccnc3)cc2)N1C(=O)CCl` (stereo partly drawn) [Compound 163, 1-((3S)-1-(4-(1H-imidazol-1-yl)phenyl)-3-methyl-1,3,4,9-tetrahydro-2H-pyrido[3,4-b]indol-2-yl)-2-chloroethan-1-one], the IC50 was > 10000 nM with A431, > 10 µM in the assay with SJSA-1 (setting [1]) and 6.4 µM in the assay on 786-O (setting [2]).
As to `C[C@H]1Cc2c([nH]c3ccccc23)[C@H](c2ccncc2)N1C(=O)CCl` [Example 171], the IC50 in the assay with A431 worked out at 8110 nM; in the assay on SJSA-1 (setting [1]), 0.254 µM.
With `C[C@H]1Cc2c([nH]c3ccccc23)[C@H](c2ccc(N3CCS(=O)(=O)CC3)cc2)N1C(=O)CCl` [Compound 210, 2-chloro-1-((1S,3S)-1-(4-(1,1-dioxidothiomorpholino)phenyl)-3-methyl-1,3,4,9-tetrahydro-2H-pyrido[3,4-b]indol-2-yl)ethan-1-one], the IC50 was 1550 nM in the assay on A431; 9.55 µM in the assay with SJSA-1 (setting [3]); 0.081 µM in the assay with SJSA-1 (setting [4]); 0.081 µM in the assay with SJSA-1 (setting [1]); > 10 µM with 786-O (setting [5]); 0.062 µM with 786-O (setting [6]). Moreover, the IC50 in the assay with 786-O (setting [2]) was 0.062 µM.
With `C[C@H]1Cc2c([nH]c3ccccc23)[C@H](c2ccc3c(c2)CNC3=O)N1C(=O)CCl` [Compound 168, 5-((1S,3S)-2-(2-chloroacetyl)-3-methyl-2,3,4,9-tetrahydro-1H-pyrido[3,4-b]indol-1-yl)isoindolin-1-one], the IC50 is 5090 nM with A431; > 10 µM in the assay on SJSA-1 (setting [3]); 0.56 µM with SJSA-1 (setting [4]); 0.56 µM with SJSA-1 (setting [1]); 3.31 µM in the assay on 786-O (setting [5]); 0.487 µM in the assay on 786-O (setting [6]). In the assay on 786-O (setting [2]), the IC50 was determined as 0.487 µM.
Regarding `C#CC(=O)N1[C@@H](CCCC)Cc2c([nH]c3ccccc23)[C@@H]1c1ccc(S(=O)(=O)NC2CC2)cc1F` [Compound 167, 4-((1S,3S)-3-butyl-2-propioloyl-2,3,4,9-tetrahydro-1H-pyrido[3,4-b]indol-1-yl)-N-cyclopropyl-3-fluorobenzenesulfonamide], the half-inhibitory concentration (IC50) with A431 amounted to 1930 nM; with SJSA-1 (setting [3]) it was 4.01 µM; in the assay with SJSA-1 (setting [4]), 0.011 µM; in the assay on SJSA-1 (setting [1]) it was 0.011 µM; with 786-O (setting [5]) it was 2 µM; with 786-O (setting [6]) it was 0.005 µM. The IC50 in the assay with 786-O (setting [2]) was determined as 0.005 µM.
Regarding `C#CC(=O)N1[C@@H](c2ccc(S(=O)(=O)NC3CC3)cc2F)c2[nH]c3ccc(OC)cc3c2C[C@@H]1C` [Compound 165, N-cyclopropyl-3-fluoro-4-((1S,3S)-6-methoxy-3-methyl-2-propioloyl-2,3,4,9-tetrahydro-1H-pyrido[3,4-b]indol-1-yl)benzenesulfonamide], the concentration for half-maximal inhibition (IC50) was determined as 3440 nM in the assay on A431; 3.77 µM in the assay on SJSA-1 (setting [3]); 0.119 µM in the assay with SJSA-1 (setting [4]); 0.119 µM in the assay on SJSA-1 (setting [1]); 4.79 µM in the assay on 786-O (setting [5]); 0.047 µM in the assay on 786-O (setting [6]). For the same compound, the IC50 with 786-O (setting [2]) is 0.047 µM.
In the case of `CC1CN(c2ccc([C@@H]3c4[nH]c5ccccc5c4C[C@H](C)N3C(=O)CCl)cc2)CCO1` (some centres unmarked) [Example 127], the values for the concentration for half-maximal inhibition (IC50) with A431 and in the assay with SJSA-1 (setting [1]) were 2800 nM and > 10 µM, respectively.
As for `COC[C@H]1Cc2c([nH]c3ccccc23)[C@H](c2ccc(C(=O)NC3CC3)cc2F)N1C(=O)CCl` [Compound 166, 4-((1S,3R)-2-(2-chloroacetyl)-3-(methoxymethyl)-2,3,4,9-tetrahydro-1H-pyrido[3,4-b]indol-1-yl)-N-cyclopropyl-3-fluorobenzamide], the concentration for half-maximal inhibition (IC50) with A431 is > 10000 nM; in the assay on SJSA-1 (setting [3]), > 10 µM; with SJSA-1 (setting [4]), 0.01 µM; in the assay with SJSA-1 (setting [1]), 0.01 µM; with 786-O (setting [5]) it was 9.52 µM; in the assay on 786-O (setting [6]), 0.008 µM. For the same compound, the IC50 in the assay on 786-O (setting [2]) was 0.008 µM.
In the case of `C#CC(=O)N1[C@@H](c2ccc(S(=O)(=O)NC3CC3)cc2F)c2[nH]c3ccc(Cl)cc3c2C[C@@H]1C` [Compound 151], the IC50 with A431 was 5220 nM; with SJSA-1 (setting [1]), 0.037 µM; with 786-O (setting [2]), 0.018 µM.
Take `C#CCOc1ccc([C@H]2c3[nH]c4ccccc4c3C[C@H](C(=O)OC)N2C(=O)CCl)cc1` [Compound 147, methyl (1S,3R)-2-(2-chloroacetyl)-1-(4-(prop-2-yn-1-yloxy)phenyl)-2,3,4,9-tetrahydro-1H-pyrido[3,4-b]indole-3-carboxylate]: the figures for the IC50 in the assay on A431, in the assay with SJSA-1 (setting [1]) and with 786-O (setting [2]) were > 10000 nM, 0.159 µM and 0.049 µM, respectively.
As to `C[C@H]1Cc2c([nH]c3ccccc23)[C@H](c2ccc(N3CCOCC3)nc2)N1C(=O)CCl` [Example 220], the IC50 is 10000 nM in the assay on A431 and 0.093 µM with SJSA-1 (setting [1]).
With `C[C@H]1Cc2c([nH]c3ccccc23)[C@H](c2ccc(CN3CCOCC3)cc2)N1C(=O)CCl` [Compound 132], the results for the IC50 in the assay on A431, with SJSA-1 (setting [1]) and with 786-O (setting [2]) were 6000 nM, 6.8 µM and 3.8 µM, respectively.
For `CC1CN(c2ccc([C@H]3c4[nH]c5ccccc5c4C[C@H](C)N3C(=O)CCl)cc2)CCO1` (some centres unmarked) [Compound 215], the IC50 amounted to 8220 nM with A431; 9.41 µM in the assay on SJSA-1 (setting [3]); 0.028 µM in the assay on SJSA-1 (setting [4]); 0.028 µM in the assay with SJSA-1 (setting [1]); 9.88 µM in the assay on 786-O (setting [5]); 0.018 µM in the assay on 786-O (setting [6]). Further, in the assay on 786-O (setting [2]), the half-maximal inhibitory concentration (IC50) worked out at 0.018 µM.
With `CCS(=O)(=O)N1CCN(c2ccc([C@H]3c4[nH]c5ccccc5c4C[C@H](C)N3C(=O)CCl)cc2)CC1` [Example 209], the IC50 with A431 is 3280 nM; in the assay on SJSA-1 (setting [1]), 0.019 µM.
Taken in the same sequence, the figures for `C#CC(=O)N1[C@@H](c2ccc(S(=O)(=O)NC3CC3)cc2F)c2[nH]c3ccccc3c2C[C@@H]1C` [Example 174] were 2990 nM and 0.091 µM.
As to `CN(C)C(=O)[C@H]1Cc2c([nH]c3ccccc23)[C@H](c2ccc(C(=O)N(CCC(=O)OC(C)(C)C)C(C)(C)C)cc2)N1C(=O)CCl` [Example 54], the 50% inhibitory concentration (IC50) in the assay on MiaPaCa-2 amounted to 217 nM; with A549 it was 790 nM; with MCF-10A it was 560 nM.
For the compound `C#CCOc1ccc2[nH]c3c(c2c1)C[C@H](C(=O)OC)N(C(=O)CCl)[C@H]3c1ccc(C(=O)NC23CC4CC(CC(C4)C2)C3)cc1` [Example 211], the values for the IC50 in the assay on A431 and in the assay on SJSA-1 (setting [1]) were 2730 nM and 0.011 µM, respectively.
The matching figures for `C[C@H]1Cc2c([nH]c3ccccc23)[C@H](c2cnn(C3CCOCC3)c2)N1C(=O)CCl` [Example 158]: > 10000 nM and 1.4 µM.
As for `C[C@H]1Cc2c([nH]c3ccccc23)C(c2ccc(S(N)(=O)=O)cc2)N1C(=O)CCl` (some centres unmarked) [Example 123], the concentration for half-maximal inhibition (IC50) in the assay with A431 was found to be 5400 nM; in the assay on SJSA-1 (setting [1]), 4.7 µM.
Turning to `C[C@H]1Cc2c([nH]c3ccccc23)[C@@H](c2cnn(C3CCOCC3)c2)N1C(=O)CCl` [Example 159], the results for the IC50 with A431 and in the assay on SJSA-1 (setting [1]) were 7000 nM and > 10 µM, respectively.
Take `CC1CN(c2ccc([C@H]3c4[nH]c5ccccc5c4C[C@H](C)N3C(=O)CCl)cc2)CC(C)O1` (some centres unmarked) [Example 212]: the IC50 came to 2510 nM with A431 and 0.008 µM with 786-O (setting [2]).
